The test system of data set [1] is carrageenan-induced paw edoema. Nature of the data set: Carrageenan-induced rat paw edoema. Particulars: rat, 50 mg/kg oral; for % of edoema inhibition (% mean ± SEM), 1 h: 1 h after carrageenan; for % of edoema inhibition (% mean ± SEM), 2 h: 2 h after carrageenan; for % of edoema inhibition (% mean ± SEM), 3 h: 3 h after carrageenan; for % of edoema inhibition (% mean ± SEM), 4 h: 4 h after carrageenan. The format is in vivo, Wistar albino rats. How it is done: The anti-inflammatory activity of the inspiring active compounds in vitro (4c, 4d, 6a, 6c, 6d and 6e) were further estimated in vivo using the carrageenan-induced paw edoema test. […] The paw thickness was assessed using Vernier calliper after carrageenan injection for 1,2, 3 and 4 h. Wistar albino rats (males weighing 120–140 g, six rats per group) were grouped as follows: Group 1 (Control) rats were received the vehicle. […] The percentage inhibition of edoema thickness was calculated at each time interval in comparison to the control group.
(In general: In the carrageenan paw model, swelling and tenderness develop within hours.)

Data set [2] concerns LPS-induced NO production in RAW 264.7 cells. Put plainly: Griess assay for NO release from LPS-stimulated RAW 264.7 cells. Particulars: Mus musculus, RAW264.7; for inhibition at 5 µM: compounds at 5 µM, 2 h before LPS, RAW 264.7 cells, read-out: NO Inhibition rates (%) ± SD; for IC50: LPS-induced RAW 264.7 cells. The format is cell-based. The method, then:
Equal volumes of Griess reagent and the supernatant, obtained from treated RAW264.7 cells with the compounds 2 h before LPS induction, were mixed for 10 min at room temperature in the dark. The absorbance was measured at 540 nm using ELISA plate reader and the nitrite concentration was calculated from sodium nitrite standard curve. The percentage inhibition (%) is calculated as absorbance at 540 nm of (LPS-compounds)/absorbance at 540 nm of (LPS-control) ×100[47]^,[48].
(In general: Nitrite, measured by Griess reagent, commonly stands in for NO production.)

The target in another data set is T1, bovine COX-1 (Ovis aries, UniProt P05979).
T1 construct: purchased Cayman Chemical 560101
T1 sequence (P05979 25-600): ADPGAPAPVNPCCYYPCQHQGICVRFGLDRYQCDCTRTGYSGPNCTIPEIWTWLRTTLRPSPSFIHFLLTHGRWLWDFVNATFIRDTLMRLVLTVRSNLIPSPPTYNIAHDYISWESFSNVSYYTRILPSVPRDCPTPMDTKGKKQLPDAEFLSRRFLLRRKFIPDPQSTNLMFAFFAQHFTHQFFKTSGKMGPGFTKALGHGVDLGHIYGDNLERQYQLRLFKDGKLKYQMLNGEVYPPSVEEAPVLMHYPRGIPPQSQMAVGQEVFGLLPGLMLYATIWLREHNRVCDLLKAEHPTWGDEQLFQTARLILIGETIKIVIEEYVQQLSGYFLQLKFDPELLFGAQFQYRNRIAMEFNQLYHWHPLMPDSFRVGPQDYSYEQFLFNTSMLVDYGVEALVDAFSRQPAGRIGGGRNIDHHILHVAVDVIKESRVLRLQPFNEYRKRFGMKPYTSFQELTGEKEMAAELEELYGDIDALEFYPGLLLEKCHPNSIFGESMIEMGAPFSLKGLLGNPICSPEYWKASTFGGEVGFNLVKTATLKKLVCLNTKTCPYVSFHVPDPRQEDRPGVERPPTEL
Put plainly: In vitro COX-1 inhibition assay (Cayman kit). The format is biochemical.

For the next data set, the system named is COX-2. Put plainly: In vitro COX-2 inhibition assay (Cayman kit). The format is biochemical, bovine. Particulars: selectivity index from COX 1 and COX 2 IC50.
The test system of data set [3] is PGE2 production in RAW 264.7 cells. Nature of the data set: PGE2 concentration by ELISA in LPS-treated RAW 264.7 cells. Particulars: Mus musculus, RAW264.7; LPS-induced RAW 264.7 cells. The format is cell-based. The method, then:
After seeding and incubation of RAW 264.7 cells for 24 h, then the cells were treated with the compounds (4c, 4d, 6a, 6c, 6d and 6e) at different concentrations and with LPS (1 µg/ml) for another 24 h. The concentration of prostaglandin E2 (PGE2) was measured in the culture media using ELISA kit (R&D Systems, Minneapolis, MN)[50].
In general terms: ELISA stands for enzyme-linked immunosorbent assay.

The next data set has as its target T2, iNOS (Mus musculus, UniProt P29477).
T2 construct: endogenous in cells; host or cells: RAW 264.7 cells induced with LPS
T2 sequence (P29477 1-1144): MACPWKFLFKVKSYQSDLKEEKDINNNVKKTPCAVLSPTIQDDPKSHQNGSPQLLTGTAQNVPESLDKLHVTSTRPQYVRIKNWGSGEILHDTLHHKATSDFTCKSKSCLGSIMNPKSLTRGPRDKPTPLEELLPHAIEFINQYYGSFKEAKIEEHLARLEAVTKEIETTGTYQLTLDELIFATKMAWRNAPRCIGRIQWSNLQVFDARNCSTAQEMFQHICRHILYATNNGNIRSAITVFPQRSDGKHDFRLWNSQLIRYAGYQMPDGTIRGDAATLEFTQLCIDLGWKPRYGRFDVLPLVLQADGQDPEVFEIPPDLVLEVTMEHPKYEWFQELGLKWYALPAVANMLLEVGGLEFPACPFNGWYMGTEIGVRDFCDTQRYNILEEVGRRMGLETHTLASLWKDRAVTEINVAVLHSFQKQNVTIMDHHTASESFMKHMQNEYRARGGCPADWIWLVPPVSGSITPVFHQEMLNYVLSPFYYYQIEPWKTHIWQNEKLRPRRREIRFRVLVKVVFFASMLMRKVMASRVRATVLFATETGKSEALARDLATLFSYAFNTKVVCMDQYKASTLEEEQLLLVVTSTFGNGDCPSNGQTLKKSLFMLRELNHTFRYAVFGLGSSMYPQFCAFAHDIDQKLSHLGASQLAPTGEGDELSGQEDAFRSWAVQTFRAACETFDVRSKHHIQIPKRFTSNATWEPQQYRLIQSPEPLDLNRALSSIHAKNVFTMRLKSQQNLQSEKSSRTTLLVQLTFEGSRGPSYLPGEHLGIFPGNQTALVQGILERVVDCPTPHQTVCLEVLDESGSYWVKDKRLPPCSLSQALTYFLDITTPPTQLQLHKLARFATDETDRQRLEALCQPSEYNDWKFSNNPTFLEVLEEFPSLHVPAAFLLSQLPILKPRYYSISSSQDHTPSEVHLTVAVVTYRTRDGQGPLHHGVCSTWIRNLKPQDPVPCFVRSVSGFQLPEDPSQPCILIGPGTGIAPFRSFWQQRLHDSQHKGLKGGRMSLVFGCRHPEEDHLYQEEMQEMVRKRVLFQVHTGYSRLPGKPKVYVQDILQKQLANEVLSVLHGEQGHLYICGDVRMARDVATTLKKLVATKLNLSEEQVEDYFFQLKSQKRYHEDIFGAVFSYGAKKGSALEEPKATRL
Nature of the data set: iNOS enzymatic activity in LPS-induced RAW 264.7 cells. It is filed as cell-based. How it is done: Then, the NOS assay reaction solution (100 µl/well) was added and incubated for an extra 2 h at 37 °C. The fluorescence with excitation wavelength at 485 nm and emission wavelength at 528 nm was measured using a fluorescent microplate reader.

Data set [4] is described as follows: MTT cytotoxicity assay on RAW 264.7 cells. Particulars: mouse; for IC50 at 20 h: with LPS; for IC50: without LPS. It is filed as cell-based. The method, then:
MTT assay was used to assess the cell viability of RAW 264.7 cells cultured in RPMI-1640 complete media. […] Afterwards, 5 µl of MTT solution were added and incubated for further 4 h. Finally, 150 ul of dimethyl sulfoxide (DMSO) were added and the optical density was assessed at 570 nm using an ELISA plate reader.

[5] abbreviates: listed as indomethacin, 50 mg/kg.

SMILES strings stand for the structures. “And” between values parts separate entries of the source, which are not always exact repeats. Identical values can stand only once.

The results in this text go back to PMC8158245, “Novel chalcone/aryl carboximidamide hybrids as potent anti-inflammatory via inhibition of prostaglandin E2 and inducible NO synthase activities: design, synthesis, molecular docking studies and ADMET prediction” (Journal of Enzyme Inhibition and Medicinal Chemistry, 2021).

The term melting point denotes the temperature of the solid-liquid transition. A word on the inhibition: it is the percentage by which the read-out fell short of the control. In general, IC50 refers to the concentration that gives 50% inhibition. The low end stands for inhibition by little substance, the high end for a need for much substance.

Regarding `Cc1ccc(-c2cc(C(F)(F)F)nn2-c2ccc(S(N)(=O)=O)cc2)cc1` [Celecoxib, reference compound], in data set [1], the “% of edoema inhibition (% mean ± SEM), 1 h” value turned out to be 10.61 ± 2.59%; the “% of edoema inhibition (% mean ± SEM), 2 h” value came to 25.43 ± 3.29%; the “% of edoema inhibition (% mean ± SEM), 3 h” value is reported as 46.42%. Also, in data set [1] (50 mg/kg), the “% of edoema inhibition (% mean ± SEM), 3 h” value is 46.42 ± 2.87% and the “% of edoema inhibition (% mean ± SEM), 4 h” value came to 12.32 ± 2.42%. In addition, the “% of edoema inhibition (% mean ± SEM), 4 h” value in data set [1] (listed as celecoxib, 50 mg/kg) came out at 12.32%.
`COc1ccc(/C=C/C(=O)c2ccc(OCC(=O)O/N=C(\N)c3ccccc3)cc2)cc1` [Compound 4a, N’-(2-{4-[(2E)-3-(4-Methoxyphenyl)prop-2-enoyl]phenoxy}acetoxy) benzenecarboximidamide] had a melting point of 164 to 166 °C. Besides, the inhibition at 5 µM in data set [2] was 41.9 ± 1.4%.
For `COc1ccc(/C=C/C(=O)c2ccc(OCC(=O)ON=C(N)c3ccc(Cl)cc3)cc2)cc1` [Compound 4b, N’-(2-{4-[(2E)-3-(4-Methoxyphenyl)prop-2-enoyl]phenoxy}acetoxy)-4-chlorobenzenecarboximidamide], in that order: 180 to 182 °C and 47.6 ± 3.6%.
For the compound `COc1ccc(/C=C/C(=O)c2ccc(OCC(=O)ON=C(N)c3ccc(OC)cc3)cc2)cc1` [Compound 4c, N’-(2-{4-[(2E)-3-(4-Methoxyphenyl)prop-2-enoyl]phenoxy}acetoxy)-4-methoxybenzenecarboximidamide], on bovine COX-1, the IC50 was 19.9 ± 1.03 µM. In data set [2], the midpoint of inhibition, the IC50, lay at 8.61 µM and the inhibition at 5 µM is 62.3 ± 1.9%. Also, in data set [1], the “% of edoema inhibition (% mean ± SEM), 1 h” value is 11.21 ± 2.41% and the “% of edoema inhibition (% mean ± SEM), 2 h” value was 33.62 ± 2.69%. Besides, in data set [1] (50 mg/kg), the “% of edoema inhibition (% mean ± SEM), 3 h” value is 57.71% and 57.71 ± 2.21%; the “% of edoema inhibition (% mean ± SEM), 4 h” value was 69.86% and 69.86 ± 3.51%. Also, the SI in the data set with COX-2 came out at 6.06. The concentration for half-maximal inhibition (IC50) in data set [3] is 0.0323 µM. On iNOS, this compound gave an IC50 of 3.62 µM. In data set [4], the 50% inhibitory concentration (IC50) at 20 h is greater than 80 µM and the half-inhibitory concentration (IC50) is greater than 80 µM.
`COc1ccc(/C=C/C(=O)c2ccc(OCC(=O)ON=C(N)c3ccc(OC)c(OC)c3)cc2)cc1` [Compound 4d, N’-(2-{4-[(2E)-3-(4-Methoxyphenyl)prop-2-enoyl]phenoxy}acetoxy)-3,4-dimethoxybenzenecarboximidamide] displayed an IC50 at bovine COX-1 of 5.82 ± 0.3 µM. For the same compound, in data set [2], the half-inhibitory concentration (IC50) was found to be 5.73 µM and the inhibition at 5 µM was found to be 73.5 ± 2.1%. In data set [1], the “% of edoema inhibition (% mean ± SEM), 1 h” value stood at 11.65 ± 2.26%; the “% of edoema inhibition (% mean ± SEM), 2 h” value came to 34.78 ± 3.34%; the “% of edoema inhibition (% mean ± SEM), 4 h” value amounted to 54.21 ± 3.47%. In data set [1] (50 mg/kg), the “% of edoema inhibition (% mean ± SEM), 3 h” value is 69.5% and 69.50 ± 1.49%. The same compound gave an SI with COX-2 of 0.25. In data set [3], this compound displayed a 50% inhibitory concentration (IC50) of 0.0247 µM. Besides, half-maximal inhibition against iNOS (IC50) was put at 2.22 µM. In data set [4], this compound displayed a 50% inhibitory concentration (IC50) at 20 h greater than 80 µM and an IC50 greater than 80 µM.
The compound `COc1ccc(/C=C/C(=O)c2ccc(OCC(=O)ON=C(N)c3ccc([N+](=O)[O-])cc3)cc2)cc1` [Compound 4e, N’-(2-{4-[(2E)-3-(4-Methoxyphenyl)prop-2-enoyl]phenoxy}acetoxy)-4-nitrobenzenecarboximidamide] returned a melting point of 184 to 186 °C. The inhibition at 5 µM in data set [2] is 44.1 ± 2.8%. Besides, the “% of edoema inhibition (% mean ± SEM), 3 h” value in data set [1] worked out at 39.26%.
`COc1ccc(/C=C/C(=O)c2ccc(OCC(=O)O/N=C(\N)c3ccc4ccccc4c3)cc2)cc1` [Compound 4f, N’-(2-{4-[(2E)-3-(4-Methoxyphenyl)prop-2-enoyl]phenoxy}acetoxy) naphthalene-2-carboximidamide] gave a melting point of 176 to 178 °C. Moreover, the inhibition at 5 µM in data set [2] is 31.2 ± 2.2%.
In the same order, the values of `COc1ccc(C(=O)/C=C/c2ccc(OCC(=O)ON=C(N)c3ccc(Cl)cc3)cc2)cc1` [Compound 6b, N’-(2-{4-[(1E)-3-(4-Methoxyphenyl)-3-oxoprop-1-en-1-yl]phenoxy}acetoxy) -4-chlorobenzenecarboximidamide] are 192 to 193 °C and 49.6 ± 2.3%.
`COc1ccc(C(=O)/C=C/c2ccc(OCC(=O)O/N=C(\N)c3ccc4ccccc4c3)cc2)cc1` [Compound 6f] showed a melting point of 178 to 179 °C. Moreover, the inhibition at 5 µM in data set [2] was 29.4 ± 2.5%.
Turning to `COc1ccc2c(c1)c(CC(=O)O)c(C)n2C(=O)c1ccc(Cl)cc1` [Indomethacin, reference compound], the IC50 was 45.7 µM in data set [2], 0.0766 µM in data set [3], 24.6 µM at iNOS and greater than 80 µM in data set [4]. Besides, the inhibition at 5 µM in data set [2] was 25.5%. In addition, the “% of edoema inhibition (% mean ± SEM), 1 h” value in data set [1] came to 28.03 ± 1.35%. Also, the “% of edoema inhibition (% mean ± SEM), 2 h” value in data set [1] is recorded as 45.27 ± 2.48%. Moreover, the “% of edoema inhibition (% mean ± SEM), 3 h” value in data set [1] (50 mg/kg) is 63.71 ± 3.48%; in data set [1] (setting [5]), 63.71%. Besides, the “% of edoema inhibition (% mean ± SEM), 4 h” value in data set [1] (50 mg/kg) is reported as 56.27 ± 2.14%; in data set [1] (setting [5]) it was 56.27%. Moreover, the IC50 at 20 h in data set [4] was greater than 80 µM.
